From patent publication US20190060463A1, “BRIDGED POLYETHYLENE GLYCOL-ALIPHATIC POLYESTER BLOCK COPOLYMER, PREPARATION METHOD FOR SAME, INTERMEDIATE OF SAME, AND USES THEREOF” (University Of Science And Technology Of China, priority 2015, published 2019)

System: MDA-MB-231 in situ breast cancer mouse tumor model
Experiment: Inhibition of breast cancer growth by nanoparticles carrying docetaxel
Format: in vivo, nude mouse
Conditions: 70 μg DTXL (3.5 mg/kg), 3 administrations, period 7 days
Method: In this Example, a MDA-MB-231 in situ breast cancer mouse tumor model was used. The specific process of establishing the model was as follows. MDA-MB-231 cells were cultured in a DMEM complete medium. The cells were cultured with a serum-free DMEM 6 hours before the model was established, and digested with trypsin. The cells were collected by centrifugation at 1000 rpm, and resuspended with PBS to allow the density of the cells to be up to 2×10^7cells/mL. 100 μL of the cell suspension was injected to the second right breast of a nude mouse. In this Example, mPEG113-b-PDLLA72, mPEG113-Dlinkm-PDLLA70, and mPEG113-Dlink-PDLLA75 were used to produce drug loaded nanoparticles.
Nude mice, which were injected with breast cancer cells in situ, were bred in a SPF-level animal room for about 7 days, and visible tumors may be formed. The volume of the tumor was calculated according to the equation: V=0.5*a*b*b, wherein a refers to a longer diameter of the tumor and b refers to a shorter diameter of the tumor. When the tumor volume of the nude mouse reaches about 60 mm^3, treatment was performed. 20 g nude mice inoculated with MDA-MB-231 tumor were divided into 5 groups according to the following manners of treatment, and each group has 5 nude mice. […] A treatment period was 7 days and 3 administrations were performed. The tumor volume was measured every 3 days. […]

SMILES: CC(=O)O[C@@]12CO[C@@H]1C[C@H](O)[C@@]1(C)C(=O)[C@H](O)C3=C(C)[C@@H](OC(=O)[C@H](O)[C@@H](NC(=O)OC(C)(C)C)c4ccccc4)C[C@@](O)([C@@H](OC(=O)c4ccccc4)[C@H]21)C3(C)C [DTXL, docetaxel]
- inhibitory effect on tumor growth: no inhibitory effect
